Results published in ChEMBL document CHEMBL5512603, “Development of de-novo coronavirus 3-chymotrypsin-like protease (3CLpro) inhibitors since COVID-19 outbreak: A strategy to tackle challenges of persistent virus infection” (Eur J Med Chem, 2024).

Assays:
[1] = target: T1, Replicase polyprotein 1ab (Severe acute respiratory syndrome coronavirus 2, UniProt P0DTD1); test: Inhibition of SARS-CoV-2 3CLp by mass spectrometry
[2] = target: Protein cereblon/Replicase polyprotein 1ab (Severe acute respiratory syndrome coronavirus 2, UniProt P0DTD1+Q96SW2); test: PROTAC activity at SARS-CoV-2 Main protease/CRBN E3 ligase (unknown origin)
[3] = target: T1, Replicase polyprotein 1ab; test: Inhibition of SARS-CoV-2 3CLp
[4] = target: T1, Replicase polyprotein 1ab; test: Inhibition of SARS-CoV-2 3CLp using fluorescent substrate by FRET assay
[5] = target: T1, Replicase polyprotein 1ab; test: Inhibition of SARS-CoV-2 recombinant main protease; assay type: single protein
[6] = target: T1, Replicase polyprotein 1ab; test: Inhibition of 2019-nCoV-2 3CLp using fluorescent substrate by FRET assay

Protein cereblon/Replicase polyprotein 1ab, sequence (Q96SW2 whole entry, other chains not shown): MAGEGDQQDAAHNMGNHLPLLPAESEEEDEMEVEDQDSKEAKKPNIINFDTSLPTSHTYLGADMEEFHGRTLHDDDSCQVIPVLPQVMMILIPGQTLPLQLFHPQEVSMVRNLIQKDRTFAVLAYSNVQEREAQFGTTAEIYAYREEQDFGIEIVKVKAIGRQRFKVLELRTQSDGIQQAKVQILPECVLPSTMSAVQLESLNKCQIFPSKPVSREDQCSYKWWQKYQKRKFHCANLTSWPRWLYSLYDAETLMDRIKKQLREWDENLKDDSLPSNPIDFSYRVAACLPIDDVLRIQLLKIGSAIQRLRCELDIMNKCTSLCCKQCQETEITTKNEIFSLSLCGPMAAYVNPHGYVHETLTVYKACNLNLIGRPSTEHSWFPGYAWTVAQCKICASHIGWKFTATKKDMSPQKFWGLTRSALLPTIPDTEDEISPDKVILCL

Structure (SMILES) | IC50 [1] | EC50 [2] | IC50 [3] | also measured
Cc1cncc(-n2c(=O)nc(Nc3cc4cn(C)nc4cc3Cl)n(Cc3cc(C#N)c(F)cc3C)c2=O)c1 | 35 nM | – | – | –
Cn1cc2cc(/N=c3\[nH]c(=O)n(Cc4cn(CCCCC(=O)Nc5cccc6c5C(=O)N(C5CCC(=O)NC5=O)C6)nn4)c(=O)n3Cc3cc(F)c(F)cc3F)c(Cl)cc2n1 (stereo not drawn) | – | < 100 nM | < 100 nM | –
C[C@H](NC(=O)[C@@H](c1cccnc1)N(C(=O)CCl)c1ccc(-c2ccccc2)cc1)c1ccccc1 | – | – | – | IC50 [4]: 50 nM
O=C(O)c1ccc(Nc2nc(=O)n(Cc3ccc[nH]c3=O)c(=O)n2Cc2cc(F)c(F)c(F)c2)cc1 | < 1000 nM | – | – | –
COc1cc(Cl)cc(-c2cc(-c3c[nH]c(=O)[nH]c3=O)cn(-c3cccnc3)c2=O)c1 | – | – | – | IC50 [5]: 1000 nM
Cn1cc2cc(/N=c3\[nH]c(=O)n(Cc4cn(CCOCC(=O)Nc5cccc6c5C(=O)N(C5CCC(=O)NC5=O)C6)nn4)c(=O)n3Cc3cc(F)c(F)cc3F)c(Cl)cc2n1 (stereo not drawn) | – | < 100 nM | > 100 nM | –
O=c1[nH]cc(-c2cc(-c3cc(Cl)cc(COc4ccccc4)c3)c(=O)n(-c3cccnc3)c2)c(=O)[nH]1 | – | – | – | IC50 [5]: 128 nM
O=c1[nH]cc(-c2cc(-c3cc(Cl)cc(COc4c(F)cccc4F)c3)c(=O)n(-c3cccnc3)c2)c(=O)[nH]1 | – | – | – | IC50 [5]: 36 nM
Cn1cc2cc(/N=c3\[nH]c(=O)n(Cc4cn(CCCCCC(=O)Nc5cccc6c5C(=O)N(C5CCC(=O)NC5=O)C6)nn4)c(=O)n3Cc3cc(F)c(F)cc3F)c(Cl)cc2n1 (stereo not drawn) | – | < 100 nM | < 100 nM | –
Cn1cc2cc(/N=c3\[nH]c(=O)n(Cc4cn(CCCCCCC(=O)Nc5cccc6c5C(=O)N(C5CCC(=O)NC5=O)C6)nn4)c(=O)n3Cc3cc(F)c(F)cc3F)c(Cl)cc2n1 (stereo not drawn) | – | < 100 nM | > 100 nM | –
CC(C)COc1cc(Cl)cc(-c2cc(-c3c[nH]c(=O)[nH]c3=O)cn(-c3cccnc3)c2=O)c1 | – | – | – | IC50 [5]: 190 nM
CCn1nnnc1Cn1c(=O)[nH]/c(=N\c2cc3cn(C)nc3cc2Cl)n(Cc2cc(F)c(F)cc2F)c1=O | – | – | – | IC50 [6]: 160 nM
Cn1cc2cc(/N=c3\[nH]c(=O)n(Cc4cn(CCOCCOCC(=O)Nc5cccc6c5C(=O)N(C5CCC(=O)NC5=O)C6=O)nn4)c(=O)n3Cc3cc(F)c(F)cc3F)c(Cl)cc2n1 (stereo not drawn) | – | < 100 nM | < 100 nM | –
Cn1cc2cc(/N=c3\[nH]c(=O)n(Cc4cn(CCCC(=O)Nc5cccc6c5C(=O)N(C5CCC(=O)NC5=O)C6)nn4)c(=O)n3Cc3cc(F)c(F)cc3F)c(Cl)cc2n1 (stereo not drawn) | – | < 100 nM | > 100 nM | –
O=c1[nH]cc(-c2cc(-c3cc(Cl)cc(OCCc4ccccc4)c3)c(=O)n(-c3cccnc3)c2)c(=O)[nH]1 | – | – | – | IC50 [5]: 37 nM
Cn1cc2cc(/N=c3\[nH]c(=O)n(Cc4cn(CCCCCCC(=O)Nc5cccc6c5C(=O)N(C5CCC(=O)NC5=O)C6=O)nn4)c(=O)n3Cc3cc(F)c(F)cc3F)c(Cl)cc2n1 (stereo not drawn) | – | > 100 nM | < 100 nM | –
CC(=O)NCCn1cc2cc(Nc3nc(=O)n(Cc4ccc[nH]c4=O)c(=O)n3Cc3cc(F)c(F)c(F)c3)c(Cl)cc2n1 | < 1000 nM | – | – | –
Cn1cc2cc(/N=c3\[nH]c(=O)n(Cc4cn(CCOCCOCC(=O)Nc5cccc6c5C(=O)N(C5CCC(=O)NC5=O)C6)nn4)c(=O)n3Cc3cc(F)c(F)cc3F)c(Cl)cc2n1 (stereo not drawn) | – | < 100 nM | < 100 nM | –
Cn1cnc(Cn2c(=O)cc(Nc3cc4cn(C)nc4cc3OC(F)(F)F)n(Cc3cc(F)c(F)cc3F)c2=O)n1 | 10 nM | – | – | –

Structure (SMILES) | IC50 [1] | EC50 [2] | IC50 [3] | also measured
O=C1c2c(O)cc(O)c([Se][Se]c3c(O)cc(O)c4c3OC(c3cc(O)c(O)c(O)c3)C(O)C4=O)c2CC(c2cc(O)c(O)c(O)c2)C1O (stereo not drawn) | – | – | – | IC50 [4]: 810 nM
CCn1nncc1Cn1c(=O)[nH]/c(=N\c2cc3cn(C)nc3cc2Cl)n(Cc2cc(F)c(F)cc2F)c1=O | – | – | – | IC50 [6]: 123 nM
Cn1cc2cc(/N=c3\[nH]c(=O)n(Cc4cn(CCOCCOCCOCC(=O)Nc5cccc6c5C(=O)N(C5CCC(=O)NC5=O)C6)nn4)c(=O)n3Cc3cc(F)c(F)cc3F)c(Cl)cc2n1 (stereo not drawn) | – | < 100 nM | > 100 nM | –
O=c1[nH]cccc1Cn1c(=O)nc(Nc2cc3cn(C4CCOCC4)nc3cc2Cl)n(Cc2cc(F)c(F)c(F)c2)c1=O | < 1000 nM | – | – | –
Cn1cc2cc(/N=c3\[nH]c(=O)n(Cc4cn(CCCCC(=O)Nc5cccc6c5C(=O)N(C5CCC(=O)NC5=O)C6=O)nn4)c(=O)n3Cc3cc(F)c(F)cc3F)c(Cl)cc2n1 (stereo not drawn) | – | < 100 nM | < 100 nM | –
Cc1cc(Cn2c(Nc3cc4cn(C)nc4cc3Cl)cc(=O)n(Cc3ncn(C)n3)c2=O)c(F)cc1F | 12 nM | – | – | –
CC(=O)Nc1nc2cc(Cl)c(Nc3nc(=O)n(Cc4ncn(C)n4)c(=O)n3Cc3cc(F)c(F)c(Cl)c3)cc2s1 | < 1000 nM | – | – | –
Cn1cc2cc(/N=c3\[nH]c(=O)n(Cc4cn(CCOCC(=O)Nc5cccc6c5C(=O)N(C5CCC(=O)NC5=O)C6=O)nn4)c(=O)n3Cc3cc(F)c(F)cc3F)c(Cl)cc2n1 (stereo not drawn) | – | < 100 nM | > 100 nM | –
Cn1cc2cc(/N=c3\[nH]c(=O)n(Cc4cn(CCCC(=O)Nc5cccc6c5C(=O)N(C5CCC(=O)NC5=O)C6=O)nn4)c(=O)n3Cc3cc(F)c(F)cc3F)c(Cl)cc2n1 (stereo not drawn) | – | < 100 nM | < 100 nM | –
COCCCc1cc(Cl)cc(-c2cc(-c3c[nH]c(=O)[nH]c3=O)cn(-c3cccnc3)c2=O)c1 | – | – | – | IC50 [5]: 25 nM
Cn1cc2cc(/N=c3\[nH]c(=O)n(Cc4nnn[nH]4)c(=O)n3Cc3cc(F)c(F)cc3F)c(Cl)cc2n1 | – | – | – | IC50 [6]: 120 nM
CN(C)CCn1cc2cc(Nc3nc(=O)n(Cc4ccc[nH]c4=O)c(=O)n3Cc3cc(F)c(F)c(F)c3)c(Cl)cc2n1 | < 1000 nM | – | – | –
Cn1cc2cc(/N=c3\[nH]c(=O)n(Cc4cn(CCC(=O)Nc5cccc6c5C(=O)N(C5CCC(=O)NC5=O)C6)nn4)c(=O)n3Cc3cc(F)c(F)cc3F)c(Cl)cc2n1 (stereo not drawn) | – | > 100 nM | > 100 nM | –
Cn1cc2cc(/N=c3\[nH]c(=O)n(Cc4cn(CCCCCC(=O)Nc5cccc6c5C(=O)N(C5CCC(=O)NC5=O)C6=O)nn4)c(=O)n3Cc3cc(F)c(F)cc3F)c(Cl)cc2n1 (stereo not drawn) | – | < 100 nM | < 100 nM | –
C[C@H](NC(=O)[C@@H](c1cccnc1)N(C(=O)c1ccco1)c1ccc(C(C)(C)C)cc1)c1ccccc1 | – | – | – | IC50 [6]: 5700 nM
Cc1cccc(OCc2cc(Cl)cc(-c3cc(-c4c[nH]c(=O)[nH]c4=O)cn(-c4cccnc4)c3=O)c2)c1 | – | – | – | IC50 [5]: 110 nM
O=c1[nH]cc(-c2cc(-c3cc(Cl)cc(COc4cccc(F)c4)c3)c(=O)n(-c3cccnc3)c2)c(=O)[nH]1 | – | – | – | IC50 [5]: 37 nM
Cn1cc2cc(Nc3nc(=O)n(Cc4ccc[nH]c4=O)c(=O)n3Cc3cc(F)c(F)c(F)c3)c(Cl)cc2n1 | < 1000 nM | – | – | –
CCn1cc2cc(Nc3nc(=O)n(-c4cncc(Cl)c4)c(=O)n3Cc3cc(C#N)ccc3Cl)ccc2n1 | 355 nM | – | – | –

Structure (SMILES) | IC50 [1] | EC50 [2] | IC50 [3] | also measured
Cn1cnc(Cn2c(=O)cc(Nc3cc4cn(C)nc4cc3C(F)(F)F)n(Cc3cc(Cl)c(Cl)cc3F)c2=O)n1 | 14 nM | – | – | –
COc1ccc(Nc2nc(=O)n(Cc3ccc[nH]c3=O)c(=O)n2Cc2cc(F)c(F)c(F)c2)cc1 | < 1000 nM | – | – | –
Cn1cnc(Cn2c(=O)cc(Nc3cc4cn(C)nc4cc3F)n(Cc3cc(Cl)c(F)cc3F)c2=O)n1 | 18 nM | – | – | –
Cc1ccccc1OCc1cc(Cl)cc(-c2cc(-c3c[nH]c(=O)[nH]c3=O)cn(-c3cccnc3)c2=O)c1 | – | – | – | IC50 [5]: 100 nM
Cn1cc2cc(/N=c3\[nH]c(=O)n(Cc4cn(CCCCCCCC(=O)Nc5cccc6c5C(=O)N(C5CCC(=O)NC5=O)C6=O)nn4)c(=O)n3Cc3cc(F)c(F)cc3F)c(Cl)cc2n1 (stereo not drawn) | – | > 100 nM | > 100 nM | –
CCn1cc2cc(Nc3nc(=O)n(-c4cncc(Cl)c4)c(=O)n3Cc3cc(C#N)ccc3C)ccc2n1 | 234 nM | – | – | –
Cn1cc2cc(/N=c3\[nH]c(=O)n(Cc4cn(CCC(=O)Nc5cccc6c5C(=O)N(C5CCC(=O)NC5=O)C6=O)nn4)c(=O)n3Cc3cc(F)c(F)cc3F)c(Cl)cc2n1 (stereo not drawn) | – | > 100 nM | > 100 nM | –
Cc1nc2cc(Br)c(Nc3nc(=O)n(Cc4ncn(C)n4)c(=O)n3Cc3cc(F)c(F)c(F)c3)cc2s1 | < 1000 nM | – | – | –
Cn1cnc(Cn2c(=O)nc(Nc3cc4sc(N)nc4cc3Cl)n(Cc3cc(F)c(F)c(Cl)c3)c2=O)n1 | < 1000 nM | – | – | –
O=c1[nH]cc(-c2cc(-c3cc(Cl)cc(COc4ccccc4F)c3)c(=O)n(-c3cccnc3)c2)c(=O)[nH]1 | – | – | – | IC50 [5]: 24 nM
N#Cc1ccccc1-c1cc(-c2cccc(Cl)c2)cn(-c2cccnc2)c1=O | – | – | – | IC50 [5]: 9990 nM
Cn1cnc(Cn2c(=O)cc(Nc3cc4cn(C)nc4cc3Cl)n(Cc3cc(F)c(F)cc3F)c2=O)n1 | 10 nM | – | – | –
Cn1cc2cc(/N=c3\[nH]c(=O)n(Cc4cn(CCCCCCCC(=O)Nc5cccc6c5C(=O)N(C5CCC(=O)NC5=O)C6)nn4)c(=O)n3Cc3cc(F)c(F)cc3F)c(Cl)cc2n1 (stereo not drawn) | – | > 100 nM | > 100 nM | –
CC(C)(O)Cn1cc2cc(Nc3nc(=O)n(Cc4ccc[nH]c4=O)c(=O)n3Cc3cc(F)c(F)c(F)c3)c(Cl)cc2n1 | < 1000 nM | – | – | –
COc1ccc(Nc2nc(=O)n(Cc3ccc[nH]c3=O)c(=O)n2Cc2cc(F)c(F)c(F)c2)c(OC)c1 | < 1000 nM | – | – | –
CCOC(=O)/C=C/C(=O)N(c1ccc(-c2ccccc2)cc1)[C@@H](C(=O)N[C@@H](C)c1ccccc1)c1cccnc1 | – | – | – | IC50 [4]: > 20000 nM
C=C(Cl)C(=O)N(c1ccc(-c2ccccc2)cc1)[C@@H](C(=O)N[C@@H](C)c1ccccc1)c1cccnc1 | – | – | – | IC50 [4]: 4220 nM
Cn1cnc(Cn2c(=O)nc(Nc3cc4sc(NCC(F)F)nc4cc3Cl)n(Cc3cc(F)c(F)c(F)c3)c2=O)n1 | < 1000 nM | – | – | –
